Laboratory results taken from PubChem BioAssay AID1918949 (Molecular Pharmacology Branch, DTP, NCI, 2023).
pIC50: −log10 of the molar value.

System: K24384-001-R-PDC complex spheroid viability
Test: Anticancer human tumor K24384-001-R-PDC patient-derived pancreatic adenocarcinoma cell line growth inhibition
Settings: for pIC50: curve of first compound; for viability, T/C: stronger effect = lower value; active = viability on the fitted dose curve at most 10% of control; inactive = the rest
Outline: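 Drug combinations with the LSD1 inhibitor iadademstat tested on tumor cells co-cultured as spheroids with endothelial cells and mesenchymal stem cells. Concentrations descended in half-log increments from clinical Cmax or 10 microM.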
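Also: spheroids exposed to agents for seven days before luminescence viability reading.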
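For viability, T/C in this document: 100% = DMSO vehicle control viability.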

CC[C@@]1(O)C(=O)OCc2c1cc1n(c2=O)Cc2cc3c(CN(C)C)c(O)ccc3nc2-1 + NC1CCC(NC2CC2c2ccccc2)CC1
7.07: pIC50 (second compound 3.16 µM)
7.05: pIC50 (second compound 0.1 µM) | pIC50 (second compound 1 µM)
inactive: viability, T/C (second compound 0.1 µM, first compound 0.000316 µM) 93.1% | viability, T/C (second compound 0.1 µM, first compound 0.001 µM) 87.2% | viability, T/C (second compound 0.1 µM, first compound 0.00316 µM) 77.6% | viability, T/C (second compound 0.1 µM, first compound 0.01 µM) 68.9% | viability, T/C (second compound 0.1 µM, first compound 0.0316 µM) 61.2% | viability, T/C (second compound 0.1 µM, first compound 0.1 µM) 48.1% | viability, T/C (second compound 0.316 µM, first compound 0.000316 µM) 99.3% | viability, T/C (second compound 0.316 µM, first compound 0.001 µM) 81.2% | viability, T/C (second compound 0.316 µM, first compound 0.00316 µM) 82.3% | viability, T/C (second compound 0.316 µM, first compound 0.01 µM) 84% | viability, T/C (second compound 0.316 µM, first compound 0.0316 µM) 70.2% | viability, T/C (second compound 0.316 µM, first compound 0.1 µM) 49.6% | viability, T/C (second compound 1 µM, first compound 0.000316 µM) 89.5% | viability, T/C (second compound 1 µM, first compound 0.001 µM) 82.7% | viability, T/C (second compound 1 µM, first compound 0.00316 µM) 75.5% | viability, T/C (second compound 1 µM, first compound 0.01 µM) 59% | viability, T/C (second compound 1 µM, first compound 0.0316 µM) 54.6% | viability, T/C (second compound 1 µM, first compound 0.1 µM) 49% | viability, T/C (second compound 3.16 µM, first compound 0.000316 µM) 93.7% | viability, T/C (second compound 3.16 µM, first compound 0.001 µM) 91.8% | viability, T/C (second compound 3.16 µM, first compound 0.00316 µM) 81% | viability, T/C (second compound 3.16 µM, first compound 0.01 µM) 77% | viability, T/C (second compound 3.16 µM, first compound 0.0316 µM) 64.5% | viability, T/C (second compound 3.16 µM, first compound 0.1 µM) 47% | viability, T/C (second compound 10 µM, first compound 0.000316 µM) 101% | viability, T/C (second compound 10 µM, first compound 0.001 µM) 88.2% | viability, T/C (second compound 10 µM, first compound 0.00316 µM) 88.7% | viability, T/C (second compound 10 µM, first compound 0.01 µM) 61.7% | viability, T/C (second compound 10 µM, first compound 0.0316 µM) 53.9% | viability, T/C (second compound 10 µM, first compound 0.1 µM) 49.8%
< 7.00: pIC50 (second compound 0.316 µM) | pIC50 (second compound 10 µM)

CCc1c2c(nc3ccc(O)cc13)-c1cc3c(c(=O)n1C2)COC(=O)[C@]3(O)CC + NC1CCC(NC2CC2c2ccccc2)CC1
active: viability, T/C (second compound 0.1 µM, first compound 0.0949 µM) 5.82% | viability, T/C (second compound 0.1 µM, first compound 0.3 µM) 4.86% | viability, T/C (second compound 0.316 µM, first compound 0.0949 µM) 4.59% | viability, T/C (second compound 0.316 µM, first compound 0.3 µM) 4.24% | viability, T/C (second compound 1 µM, first compound 0.0949 µM) 5.26% | viability, T/C (second compound 1 µM, first compound 0.3 µM) 4.62% | viability, T/C (second compound 3.16 µM, first compound 0.0949 µM) 4.03% | viability, T/C (second compound 3.16 µM, first compound 0.3 µM) 4.04% | viability, T/C (second compound 10 µM, first compound 0.0949 µM) 3.67% | viability, T/C (second compound 10 µM, first compound 0.3 µM) 3.1%
> 9.02: pIC50 (second compound 0.1 µM) | pIC50 (second compound 0.316 µM) | pIC50 (second compound 1 µM) | pIC50 (second compound 3.16 µM) | pIC50 (second compound 10 µM)
inactive: viability, T/C (second compound 0.1 µM, first compound 0.000949 µM) 46.4% | viability, T/C (second compound 0.1 µM, first compound 0.003 µM) 36.2% | viability, T/C (second compound 0.1 µM, first compound 0.00949 µM) 30.9% | viability, T/C (second compound 0.1 µM, first compound 0.03 µM) 8.66% | viability, T/C (second compound 0.316 µM, first compound 0.000949 µM) 46.2% | viability, T/C (second compound 0.316 µM, first compound 0.003 µM) 43.4% | viability, T/C (second compound 0.316 µM, first compound 0.00949 µM) 35% | viability, T/C (second compound 0.316 µM, first compound 0.03 µM) 10.1% | viability, T/C (second compound 1 µM, first compound 0.000949 µM) 41.5% | viability, T/C (second compound 1 µM, first compound 0.003 µM) 39% | viability, T/C (second compound 1 µM, first compound 0.00949 µM) 31.5% | viability, T/C (second compound 1 µM, first compound 0.03 µM) 9.09% | viability, T/C (second compound 3.16 µM, first compound 0.000949 µM) 47.4% | viability, T/C (second compound 3.16 µM, first compound 0.003 µM) 43% | viability, T/C (second compound 3.16 µM, first compound 0.00949 µM) 33.2% | viability, T/C (second compound 3.16 µM, first compound 0.03 µM) 9.39% | viability, T/C (second compound 10 µM, first compound 0.000949 µM) 45% | viability, T/C (second compound 10 µM, first compound 0.003 µM) 38.1% | viability, T/C (second compound 10 µM, first compound 0.00949 µM) 26.3% | viability, T/C (second compound 10 µM, first compound 0.03 µM) 9.03%
